# Measurements: US20250032651A1, “[177LU] LUTETIUM-PSMA I&T COMPOSITION AND DOSIMETRY, KIT, METHOD OF MAKING, AND METHOD OF USING THEREOF” (Curium US LLC, priority 2022, published 2025)
# Assay: Normal organ dosimetry Cycle 1: SPECT/CT, TIACs, OLINDA 2.2.3 absorbed radiation dose
# Assay type: in vivo, human
# Conditions: for Absorbed Dose, Mean / Absorbed Dose, max / Absorbed Dose, median / Absorbed Dose, min: Cycle 1, n = 26
# Experimental: This Example presents the biodistribution, dosimetry, and pharmacokinetics (PK) results of a PK/Dosimetry sub-study performed as part of a Phase III trial. Twenty-seven (27) patients were administered a target activity of 7.4±10% GBq of ^177Lu-PSMA-I&T and underwent single photon emission computed tomography (SPECT)/computed tomography (CT) imaging at four timepoints (4 h, 24 h, 48 h, and 168 h). Image data was analysed to compute time-activity curves (TACs) and subsequently time-integrated activity coefficients (TIACs) in each organ of interest and in organs showing appreciable and meaningful ^177Lu-PSMA-I&T activity. Organ Level Internal Dose Assessment (OLINDA 2.2.3) was used to compute organ and whole body absorbed radiation doses for each patient.
# All participating sites underwent a rigorous site setup process during which all dose calibrators, scanners, and gamma counters used in the sub-study were calibrated. Sites were allowed to enroll patients in the sub-study only after the completion and approval of all site setup processes by Invicro. Patients underwent SPECT/CT imaging, with anatomical coverage typically extending from the salivary glands to the pelvis, following the administration of a targeted 7.4±10% GBq of ^177Lu-PSMA-I&T at cycle 1. SPECT/CT imaging was performed at four timepoints: 4 h, 24 h, 48 h, and 168 h post-injection. Additionally, a subset of patients imaged at Cycle 1 (16 out of 27), were also imaged at Cycle 3 (Table 2).
# The imaging data was analyzed using Invicro's VivoQuant software, a validated software used in a 21 CFR § 11-compliant workflow. The general quantification approach was based on the principles detailed in the Medical Internal Radiation Dose (MIRD) Pamphlet No. 16, No 23, and No 26 as appropriate.
# Volume of interest (VOI) (kidneys, bladder, liver, lumbar vertebrae L2-L4, lacrimal glands, salivary glands [parotid and submandibular glands], and whole body) were delineated on each dataset by a trained image analyst. […] Organs were segmented either by drawing the entire contour of the organ, or by placing a sphere in a representative region of the organ and then multiplying by the organ's effective mass (based on patient's height and weight). Segmentation methods for each organ are specified in Table 3 and were consistently applied to each patient.
# Clearance of the radiopharmaceutical was derived from a data-appropriate fit of each organ's TAC. Depending on the TAC's shape, the data was fitted with the sum of one, two, or three exponentials, or using a rise and fall model. Fitting was performed with in-house Python software. TIACs were calculated through analytical integration of the curve fit extrapolated to infinity. […] A whole-body TAC was derived from delineating the imaged body. The remainder activity was determined by subtracting the cumulative organ TIACs from the whole body TIAC.
# Organ TIACs were input into OLINDA 2.2.3 for the computation of organ and whole-body absorbed doses, using International Commission on Radiological Protection (ICRP)-103 weighing factors. The ICRP-89 derived male phantom was used for dose estimation. Organs and body mass as defined by ICRP-89 were scaled based on height and mass using patient effective mass.^4 The voiding bladder model as implemented in OLINDA was used to determine bladder TIAC, assuming a voiding interval of 4 hours. The human alimentary tract model (HAT model) described in ICRP 100 and implemented in OLINDA was used to compute doses to the small intestine, right colon, left colon and rectum for patients showing clearance through the GI tract. The fraction of injected activity (fIA) cleared via the GI tract was determined by taking the peak fIA in the GI tract over all the imaging timepoints. […] The Red Marrow mass in L2-L4 was assumed to be 6.7% of the total red marrow mass.
# [1] = Stomach Wall, 16 patients imaged at cycle 1 and 3
# [2] = Testes, 16 patients imaged at cycle 1 and 3
# [3] = Thymus, 16 patients imaged at cycle 1 and 3
# [4] = Thyroid, 16 patients imaged at cycle 1 and 3
# [5] = Total Body, 16 patients imaged at cycle 1 and 3
# [6] = Urinary Bladder wall, 16 patients imaged at cycle 1 and 3
compound,measurement,setting,value
"O=C([O-])CC[C@H](NC(=O)N[C@@H](CCCCNC(=O)CCCCCCC(=O)NCCCC[C@@H](NC(=O)[C@@H](Cc1ccccc1)NC(=O)[C@@H](Cc1ccc(O)c(I)c1)NC(=O)CC[C@H](C(=O)[O-])N1CCN(CC(=O)[O-])CCN(CC(=O)[O-])CCN(CC(=O)[O-])CC1)C(=O)[O-])C(=O)[O-])C(=O)[O-].[177Lu+3].[H+].[H+].[H+].[H+].[H+] [^177Lu-PSMA I&T, (3S,7S,26R,29R,32R,37R)-29-benzyl-32-(4-hydroxy-3-iodobenzyl)-5,13,20,28,31,34-hexaoxo-37-(4,7,10-tris(carboxymethyl)-1,4,7,10-tetraazacyclododecan-1-yl)-4,6,12,21,27,30,33-heptaazaheptatriacontane-1,3,7,26,37-pentacarboxylic acid; lutetium-177 (III)]","Absorbed Dose, Mean",Spleen,0.03 Gy/GBq
same,"Absorbed Dose, max",Spleen,0.11 Gy/GBq
same,"Absorbed Dose, median",Spleen,0.02 Gy/GBq
same,"Absorbed Dose, min",Spleen,0.01 Gy/GBq
same,"Absorbed Dose in Cycle 1, Mean","Spleen, N = 16",0.03 Gy/GBq
same,"Absorbed Dose in Cycle 1, max","Spleen, N = 16",0.11 Gy/GBq
same,"Absorbed Dose in Cycle 1, min","Spleen, N = 16",0.01 Gy/GBq
same,"Absorbed Dose in Cycle 1, Mean",[1],0.02 Gy/GBq
same,"Absorbed Dose in Cycle 1, max",[1],0.07 Gy/GBq
same,"Absorbed Dose in Cycle 1, min",[1],0.00 Gy/GBq
same,"Absorbed Dose, Mean",Stomach Wall,0.02 Gy/GBq
same,"Absorbed Dose, max",Stomach Wall,0.07 Gy/GBq
same,"Absorbed Dose, median",Stomach Wall,0.01 Gy/GBq
same,"Absorbed Dose, min",Stomach Wall,0.00 Gy/GBq
same,"Absorbed Dose in Cycle 1, Mean","Stomach Wall, N = 16",0.02 Gy/GBq
same,"Absorbed Dose in Cycle 1, max","Stomach Wall, N = 16",0.07 Gy/GBq
same,"Absorbed Dose in Cycle 1, min","Stomach Wall, N = 16",0.00 Gy/GBq
same,"Absorbed Dose in Cycle 1, Mean",[2],0.01 Gy/GBq
same,"Absorbed Dose in Cycle 1, max",[2],0.07 Gy/GBq
same,"Absorbed Dose in Cycle 1, min",[2],0.00 Gy/GBq
same,"Absorbed Dose, Mean",Testes,0.01 Gy/GBq
same,"Absorbed Dose, max",Testes,0.07 Gy/GBq
same,"Absorbed Dose, median",Testes,0.01 Gy/GBq
same,"Absorbed Dose, min",Testes,0.00 Gy/GBq
same,"Absorbed Dose in Cycle 1, Mean","Testes, N = 16",0.01 Gy/GBq
same,"Absorbed Dose in Cycle 1, max","Testes, N = 16",0.07 Gy/GBq
same,"Absorbed Dose in Cycle 1, min","Testes, N = 16",0.00 Gy/GBq
same,"Absorbed Dose in Cycle 1, Mean",[3],0.01 Gy/GBq
same,"Absorbed Dose in Cycle 1, max",[3],0.07 Gy/GBq
same,"Absorbed Dose in Cycle 1, min",[3],0.00 Gy/GBq
same,"Absorbed Dose, Mean",Thymus,0.01 Gy/GBq
same,"Absorbed Dose, max",Thymus,0.07 Gy/GBq
same,"Absorbed Dose, median",Thymus,0.01 Gy/GBq
same,"Absorbed Dose, min",Thymus,0.00 Gy/GBq
same,"Absorbed Dose in Cycle 1, Mean","Thymus, N = 16",0.01 Gy/GBq
same,"Absorbed Dose in Cycle 1, max","Thymus, N = 16",0.07 Gy/GBq
same,"Absorbed Dose in Cycle 1, min","Thymus, N = 16",0.00 Gy/GBq
same,"Absorbed Dose in Cycle 1, Mean",[4],0.01 Gy/GBq
same,"Absorbed Dose in Cycle 1, max",[4],0.07 Gy/GBq
same,"Absorbed Dose in Cycle 1, min",[4],0.00 Gy/GBq
same,"Absorbed Dose, Mean",Thyroid,0.01 Gy/GBq
same,"Absorbed Dose, max",Thyroid,0.07 Gy/GBq
same,"Absorbed Dose, median",Thyroid,0.01 Gy/GBq
same,"Absorbed Dose, min",Thyroid,0.00 Gy/GBq
same,"Absorbed Dose in Cycle 1, Mean","Thyroid, N = 16",0.01 Gy/GBq
same,"Absorbed Dose in Cycle 1, max","Thyroid, N = 16",0.07 Gy/GBq
same,"Absorbed Dose in Cycle 1, min","Thyroid, N = 16",0.00 Gy/GBq
same,"Absorbed Dose in Cycle 1, Mean",[5],0.02 Gy/GBq
same,"Absorbed Dose in Cycle 1, max",[5],0.09 Gy/GBq
same,"Absorbed Dose in Cycle 1, min",[5],0.01 Gy/GBq
same,"Absorbed Dose, Mean",Total Body,0.02 Gy/GBq
same,"Absorbed Dose, max",Total Body,0.09 Gy/GBq
same,"Absorbed Dose, median",Total Body,0.02 Gy/GBq
same,"Absorbed Dose, min",Total Body,0.01 Gy/GBq
same,"Absorbed Dose in Cycle 1, Mean","Total Body, N = 16",0.02 Gy/GBq
same,"Absorbed Dose in Cycle 1, max","Total Body, N = 16",0.09 Gy/GBq
same,"Absorbed Dose in Cycle 1, min","Total Body, N = 16",0.01 Gy/GBq
same,"Absorbed Dose in Cycle 1, Mean",[6],0.40 Gy/GBq
same,"Absorbed Dose in Cycle 1, max",[6],0.47 Gy/GBq
same,"Absorbed Dose in Cycle 1, min",[6],0.33 Gy/GBq
same,"Absorbed Dose, Mean",Urinary Bladder wall,0.41 Gy/GBq
same,"Absorbed Dose, max",Urinary Bladder wall,0.50 Gy/GBq
same,"Absorbed Dose, median",Urinary Bladder wall,0.41 Gy/GBq
same,"Absorbed Dose, min",Urinary Bladder wall,0.33 Gy/GBq
same,"Absorbed Dose in Cycle 1, Mean","Urinary Bladder wall, N = 16",10.40 Gy/GBq
same,"Absorbed Dose in Cycle 1, max","Urinary Bladder wall, N = 16",0.47 Gy/GBq
same,"Absorbed Dose in Cycle 1, min","Urinary Bladder wall, N = 16",0.33 Gy/GBq
